Consider 114 compounds from a melting point compilation (Tetko et al.).

`COc1cccc(OC)c1`: the melting point (in general, the temperature of the solid-liquid transition) was -52 °C.

Compound `O=C(O)[C@@H]1CCCC[C@H]1C(=O)c1ccc(Cl)cc1` (relative stereo) yielded a melting point of 157 to 161 °C.

In the case of `Clc1ccc(C2C3CCc4ccccc4C3=NN2c2ccc(Cl)cc2)cc1` (centres undefined), the melting point was 186 to 188 °C.

Consider `BrCc1c(CBr)c(CBr)c2ccccc2c1CBr`, for which the melting point came out at 197 °C.

In the case of `Clc1ccc(Cc2c(N=Cc3ccccc3)n[nH]c2N=Cc2ccccc2)cc1`, the melting point lay in the range of 180 to 182 °C.

For the compound `Cc1cnnc2c1-c1nonc1CC2`, the melting point fell in the range of 155 to 158 °C.

The compound `CC(=O)C(C(=O)OC1CC(C)CCC1C(C)C)C(C)C(C(C)=O)C(=O)OC1CC(C)CCC1C(C)C` (centres undefined) registered a melting point of 200 °C.

On to `CC(C(=O)O)=C(c1ccccc1)c1ccccc1`, for which the melting point was 163 °C.

`O=C(Nc1ccccc1)N(Cc1ccc(Cl)cc1)C1CCCC1`: the melting point was 132 °C.

Consider `COc1ccc(-c2ccc(C(=O)O)o2)cc1`, for which the melting point was 176 to 178 °C.

The compound `CC(C)N1C(=O)c2ccccc2NS1(=O)=O` had a melting point of 140 °C.

The compound `O=C(Nc1nc(-c2ccccc2)cs1)c1ccccc1` registered a melting point of 123 °C.

For `Cn1c(=O)c(C2=NNC(=O)C2=CNc2ccccn2)c(O)c2ccccc21`, the melting point was 235 °C.

Consider `CCOC(=O)NNC(=O)NC1CCCCC1`, for which the melting point lay within 115 to 117 °C.

Regarding `CC(=NO)c1ccccc1`, the melting point was 60 °C.

Compound `CC1(C)CC(=O)NC(=O)C1` gave a melting point of 145 °C.

For `Cc1ccc2cc3c(cc2n1)CCC(C)N3C(=O)c1ccccc1` (centres undefined), the melting point was 155 °C.

Turning to `O=C1COc2ccccc21`, the melting point came to 102 °C.

`CCC(=O)Oc1ccccc1`: the melting point came to 20 °C.

With `Nc1ccc(C(F)(F)F)cn1`, the melting point was determined as 47 °C.

The compound `O=[N+]([O-])c1ccccc1/C=C/c1nc2ccccc2s1` showed a melting point of 131 °C.

`O=C(O)CSc1ccnc2cc(Cl)ccc12` returned a melting point of 223 to 225 °C.

Take `OCc1scc2c1OCCO2`: the melting point was 68 to 69 °C.

In turn, `CC1NC(C(=O)O)C(C)(C)S1` (mixture of isomers) returned a melting point of 166 to 168 °C.

Take `CCOC(=O)Nc1ccc2c(c1)N(C(=O)CCN1CCOCC1)c1ccccc1S2`: the melting point is 156 °C.

Turning to `O=C(O)c1ncc[nH]1`, the melting point amounted to 198 °C.

With `FC(F)(F)c1ccc(-c2nnc(S)o2)cc1`, the melting point fell in the range of 155 to 156 °C.

Take `O=C(O)c1ccc(-c2ncccn2)cc1`: the melting point lay in the range of 238 to 240 °C.

Compound `NCCCCCN` gave a melting point of 9 °C.

Take `CC1CC(C)CC(C)C1` (centres undefined): the melting point was -49.7 °C.

For `OC(c1ccccc1)c1ccc(C(F)(F)F)cc1` (centres undefined), the melting point is 60 °C.

In turn, `COC(=O)c1cc(O)cc(Br)c1` yielded a melting point of 133 °C.

In turn, `CC1(C)OC2C(=O)OC(CO)C2O1` (centres undefined) displayed a melting point of 136 to 140 °C.

For the compound `O=C1CCCC(O)=C1Cl`, the melting point was 198 to 204 °C.

As to `Cn1[nH]c(N)c2c(=O)ccnc1-2`, the melting point was determined as 218 °C.

`Nc1ccccc1N1CCOCC1` yielded a melting point of 98 to 99 °C.

With `CC(=O)C1=CCC2(C)C(CCC3C4CCC(=O)C4(C)CCC32)C1` (centres undefined), the melting point lay within 152 to 153 °C.

In turn, `O=c1[nH]c2c(c(=O)n1C1CCCCC1)CCC2` gave a melting point of 316 °C.

In turn, `OCC(Br)C(Br)CO` (centres undefined) returned a melting point of 85 °C.

`CC1=CCCC(C)(C)C1/C=C/C(C)=C/C=C/C(C)=C/C=C/C=C(C)/C=C/C=C(C)/C=C/C1=C(C)CCCC1(C)C` (centres undefined) gave a melting point of 188 °C.

With `CN1CCN(c2ccc(N)cc2)CC1`, the melting point was determined as 92 °C.

For `CCc1cccc2ccccc12`, the melting point is -13.9 °C.

Compound `CC1CS(=O)(=O)CCN1N=Cc1ccc([N+](=O)[O-])o1` (centres undefined) showed a melting point of 181 °C.

`CC(=O)c1ccc(-c2ccccc2OC(F)(F)F)o1` had a melting point of 40 to 47 °C.

On to `N#Cc1ccc(Cn2ccnc2)cc1`, for which the melting point was 103 to 104 °C.

Regarding `CC(=O)c1cc2cc3c4c(c2oc1=O)CCCN4CCC3`, the melting point is 181 to 184 °C.

Consider `C(=Nc1ccccc1)=Nc1ccccc1`, for which the melting point was 169 °C.

`O=C(CC(=O)C(F)(F)F)c1ccc2ccccc2c1` registered a melting point of 74 °C.

The compound `CC(=O)C(C#N)(CC(=O)c1ccccc1)c1ccccc1` (centres undefined) gave a melting point of 94 °C.

Compound `Nc1ncc(Br)cc1Br` displayed a melting point of 104 °C.

`Cc1ccccc1CCO` had a melting point of 2 °C.

The compound `CCOC(=O)c1nc2ccccc2s1` yielded a melting point of 70 °C.

The compound `Nc1ccc(C(F)(F)F)cc1[N+](=O)[O-]` displayed a melting point of 107 °C.

With `NC(=O)c1cccc(C(=O)O)c1`, the melting point is 280 °C.

Consider `OC1OCCOC1O` (centres undefined), for which the melting point came out at 101 °C.

`c1ccc2cc3c(cc2c1)oc1ccccc13`: the melting point lay within 202 to 207 °C.

For `CCOC(=O)c1sc(N)c(C(=O)OCC)c1C`, the melting point worked out at 115 °C.

As to `Cc1ccc(C(c2ccc(C)o2)c2cc(Br)cc(C)c2O)o1`, the melting point is 198 to 199 °C.

Compound `COC(=O)[C@H](CC(=O)O)Cc1cccc2ccccc12` registered a melting point of 113 °C.

Compound `CCOC(=O)C(Br)=NNc1ccc([N+](=O)[O-])cc1` came in with a melting point of 199 to 200 °C.

For `COc1cc2c(cc1OC)C(=S)NCC2`, the melting point lay in the range of 223 to 226 °C.

Regarding `CC(=O)C12OC(C)(c3ccccc3)OC1CC1C3CCC4=CC(=O)CCC4(C)C3CCC12C` (centres undefined), the melting point was 150 °C.

In turn, `Nc1ccc2[nH]nnc2c1` registered a melting point of 160 °C.

For the compound `O=C(O)c1cc(=O)[nH]c(=O)[nH]1`, the melting point stood at 345 °C.

As to `Nc1ccc(Cl)cn1`, the melting point is 137 °C.

Compound `CCOC(=O)c1csc(-c2ccc(Br)s2)n1` gave a melting point of 97 to 101 °C.

Take `O=C1C=CC(=O)N1c1ccc(Nc2ccccc2)c2ccccc12`: the melting point was 207 °C.

On to `Clc1ccc(P(c2ccc(Cl)cc2)c2ccc(Cl)cc2)cc1`, for which the melting point worked out at 103 °C.

The compound `CCc1c(C)ccc2c1CCC1C2CCC2CC(O)CCC21C` (centres undefined) had a melting point of 172 °C.

As to `COc1cccc(OC)c1Br`, the melting point is 93 °C.

As for `O=C=Nc1ccccc1[N+](=O)[O-]`, the melting point is 41 °C.

The compound `Brc1ccc(Oc2ccc(Br)c(Br)c2)c(Br)c1` yielded a melting point of less than 20 °C.

`COC(=O)c1cncn1C` displayed a melting point of 57 °C.

`Nc1nn2c(C(F)(F)F)cc(-c3cccs3)nc2c1/N=N/c1ccc(C(=O)O)cc1`: the melting point was determined as 184 °C.

`CC(C)Oc1cc(-n2nc(C(C)(C)C)oc2=O)c(Cl)cc1Cl` returned a melting point of 90 °C.

With `Nc1nn2c(C(F)(F)F)cc(-c3cccs3)nc2c1/N=N/c1cccc([N+](=O)[O-])c1`, the melting point is 245 °C.

In turn, `CC1CS1` (centres undefined) had a melting point of -91 °C.

As to `Cn1c(N)c(N=O)c(=O)[nH]c1=O`, the melting point is 300 °C.

In the case of `O=[N+]([O-])c1ccc(Oc2ccc(Cl)cc2)nc1`, the melting point was in the range of 93 to 96 °C.

With `Brc1c(Br)c(Br)c(Oc2ccccc2)c(Br)c1Br`, the melting point was determined as 200 °C.

`O=C(O)c1cc(F)c(F)c(O)c1F` gave a melting point of 143 to 147 °C.

`COc1cc(F)c(F)cc1CBr` yielded a melting point of 42 °C.

Regarding `N#CC(N)C(N)=O` (centres undefined), the melting point fell in the range of 120 to 124 °C.

Regarding `CC(=O)c1nn(-c2cccc([N+](=O)[O-])c2)c(=NC(=O)c2ccccc2)s1`, the melting point came to 196 °C.

Consider `Cc1cc(C(=O)O)c(C)n1Cc1cccs1`, for which the melting point lay in the range of 184 to 187 °C.

For the compound `Cc1cccnc1C(=O)O`, the melting point was determined as 119 °C.

`O=C(O)CSc1cccc2cccc(Cl)c12` showed a melting point of 156 °C.

The compound `CS(=O)(=O)OCCCNCCCOS(C)(=O)=O` registered a melting point of 116 °C.

As to `C/C(OCCc1ccccc1)=C(/C#N)c1ccccc1`, the melting point stood at 118 °C.

The compound `N#CCc1ccccc1Br` yielded a melting point of 19 °C.

Turning to `Nc1cc(Cl)c(Cl)c(Cl)c1`, the melting point amounted to 99 °C.

In the case of `Brc1ccc2c(c1)OCOC2`, the melting point was 49 to 51 °C.

The compound `O=C(O)C(O)c1ccccc1F` (centres undefined) had a melting point of 115 °C.

In turn, `c1cnc2nc[nH]c2c1` gave a melting point of 148 °C.

Take `COC(=O)c1ccc([N+](=O)[O-])c(C)c1`: the melting point came to 81 °C.

In turn, `COc1ccccc1-c1ccc(C=NO)o1` gave a melting point of 128 °C.

`O=C=Nc1ccc(Oc2ccc(N=C=O)cc2)cc1` displayed a melting point of 62 to 66 °C.

The compound `O=C(O)C(F)(F)C(F)(F)C(F)(F)C(F)(F)C(F)(C(F)(F)F)C(F)(F)F` had a melting point of 13 °C.

Compound `C=CC[C@H](N)C(=O)O` had a melting point of 253 to 255 °C.

`O=C(Cl)c1ccccc1`: the melting point was -1 °C.

Take `Cc1cccc(C)c1NC(=O)C(C)Br` (centres undefined): the melting point lay in the range of 163 to 165 °C.

For the compound `NC(=O)c1ccnc(I)c1`, the melting point stood at 165 °C.

`CN1N=C2c3ccccc3CCC2C1c1ccc(Cl)cc1` (centres undefined) had a melting point of 199 to 201 °C.

In the case of `O=C(O)[C@H]1NCC[C@@H]1O`, the melting point turned out to be 235 °C.

`Cc1n[nH]c(C)c1-c1ccccc1C(=O)O` displayed a melting point of 256 °C.

The compound `O=C(C=Cc1ccc(F)cc1)C=Cc1ccc(F)cc1` displayed a melting point of 141 to 146 °C.

`O=C(O)C=Cc1cccc(Cl)c1` showed a melting point of 163 to 166 °C.

In turn, `O=C1c2c(O)cccc2C(C2OC(CO)C(O)C(O)C2O)c2cc(CO)cc(O)c21` (centres undefined) displayed a melting point of 148 °C.

As for `Cc1cc(O)cc(C)c1C`, the melting point came to 106 °C.

Take `Cn1c(C=O)cc2sccc21`: the melting point was in the range of 63 to 64 °C.

In turn, `O=C1C=C(O)C(=O)C=C1O` yielded a melting point of 220 °C.

In turn, `CN1CCN(C(c2ccccc2)c2ccccc2)CC1` showed a melting point of 106 °C.

Take `c1ccc(CC2CCCCN2)cc1` (centres undefined): the melting point worked out at 32 °C.

Compound `CSC(SC)=C(C#N)C(=O)c1cccc(Cl)c1` registered a melting point of 88 to 91 °C.
